Measurements reported in patent US20080014192A1, “Methods For The Diagnosis And Treatment of Fungal Infections Caused By Microorganisms Producing Glucosylceramide” (priority 2006, published 2008).

Legend:
[1] = tested on: Cn WT (C. neoformans var. grubii serotype A H99); assay: Survival of Tgε26 mice infected intranasally with Cn wild-type; type: in vivo, Cryptococcus neoformans; details: Cn WT intranasal, weekly intranasal liposome treatment, no significant change vs controls
Procedure: (§1) Animal studies. Four to six-week-old Tgε26 mice (Wang et al., 1994; Wang et al., 1997), available in our Animal Core Facility, Medical University of South Carolina, Charleston, S.C., were used for this study. Mice were anesthetized with an intraperitoneal injection of 60 μl xylaxine/ketamine mixture containing 5 mg xylazine and 95 mg ketamine per kilogram of body weight. Wild-type and mutant strains of Cn were grown in YPD media for 24 hrs at 30° C. The yeast cells were harvested and washed three times by centrifugation at 3000 rpm for 10 minutes and resuspended in sterile PBS (pH=7.4) at a concentration of 2.5×10^7 cells/ml. Mice were infected intranasally with 20 μl containing 5×10^5 wild-type, Δgcs1 or Δgcs1+GCS1 cells. Mice were fed ad libitum and monitored by twice-daily inspections. Mice that appeared moribund, in pain or with clinical signs of meningoencephalitis were sacrificed using CO2 inhalation followed by cervical dislocation. […] Survival data from the mice experiment were analyzed by Kluskal-Wallis test. […]
(§2) Alveolar macrophage depletion was evaluated by intranasally introducing 60 μl of PBS, empty liposome or liposomes containing clodronate into the mouse and performing bronchoalveolar lavage at 48 hours or 6 days. […] The collected fluid was spun down and alveolar macrophages were counted. […]

[2] = tested on: Cn WT (C. neoformans var. grubii serotype A H99); assay: Tissue fungal burden (CFU) in Tgε26 mice infected with Cn wild-type; type: in vivo, Cryptococcus neoformans
Procedure: (§3) Alveolar macrophage depletion was evaluated by intranasally introducing 60 μl of PBS, empty liposome or liposomes containing clodronate into the mouse and performing bronchoalveolar lavage at 48 hours or 6 days. Bronchoalveolar lavage was done by inserting a stub adapter in the trachea of the mouse and rinsing the alveolar spaces 10 times using 0.5 ml PBS (pH=7.4) for each wash. The collected fluid was spun down and alveolar macrophages were counted. Lavage samples were taken from two mice per time point per group. Experimental groups were divided into five mice each receiving PBS (control group), empty liposome (control group) or liposome encapsulated clodronate administered mice. Two days before infection with yeast, the mice were anesthesized and given 60 μl of PBS, empty liposomes or clodronate-encapsulated liposomes. After 48 hrs, mice were infected with the yeast cells as described above. Mice continued to receive PBS, liposome or clodronate treatment weekly.
(§4) Tissue fungal burden. […] Organs were homogenized in sterile PBS, using the Stomacher 80 (Lab system, Fisher Scientific, Pittsburgh, Pa., USA) for 2 minutes. Serial dilutions were then plated onto YPD plates and colony-forming units were counted and recorded. Statistical analysis was performed using Student's t test, and a p value of less than 0.05 was considered to be significant.
Tissue burden studies. […]

alveolar macrophages = assay: Alveolar macrophage depletion, count in bronchoalveolar lavage after intranasal liposomes; type: in vivo, mouse; details: P<0.05
Procedure: Alveolar macrophage depletion. Liposomes containing clodronate (dichloromethylenediphosphonic acid disodium salt) and empty liposomes used as control, were prepared as described previously (Van Rooijen, 1994). Briefly, 8 mg cholesterol (Avanti Polar Lipids) and 86 mg L-alpha phosphatidylcholine (Avanti Polar Lipids) were dissolved in chloroform, which was then slowly evaporated. The thin, filmy layer was resuspended in 10 ml of PBS or 0.6M clodronate. The mixture was exposed to N2 gas and incubated 2 hours at room temperature with gentle shaking. The mixture was then sonicated and incubated another 2 hours to allow liposome swelling. The solution was centrifuged at 10,000 g for 15 minutes and the liposomes containing clodronate were collected and washed twice with sterile PBS. The liposomes were kept at 4° C. under N2 until use for a maximum of 2 weeks.
as §2
Pharmacological depletion of alveolar macrophage. […] After 48 hours or 7 days from the injection, mice were sacrificed, the bronco alveolar lavage (BAL) fluid was collected and viability of alveolar macrophages assessed microscopically.

Cn Δgcs1 mutant [3] = assay: Tissue fungal burden (CFU) in Tgε26 mice infected with Cn Δgcs1; type: in vivo, Cryptococcus neoformans
Procedure: as §3, §4
Tissue burden studies. To address the effect of macrophage depletion on the dissemination of Δgcs1 cells, we performed tissue burden studies of lung, brain, spleen, and kidney upon infection of Cn WT or Δgcs1 strain.

Cn Δgcs1 mutant [4] = assay: Survival of Tgε26 mice infected intranasally with Cn Δgcs1; type: in vivo, Cryptococcus neoformans
Procedure: as §1, §2

Cn Δgcs1 mutant [5] = assay: Lung histopathology of Tgε26 mice infected with Cn Δgcs1; type: in vivo, Cryptococcus neoformans; details: day 16 and day 36 of infection; vs empty liposome
Procedure: Histological analyses. Organs were harvested and fixed for 48 hours in 37% formaldehyde, paraffin-embedded, sectioned and stained with movat, mucicarmine, or hematoxylin and eosin.
Histopathology. To gain further insights in the host inflammatory response against Cn Δgcs1 cells in mice in which macrophages have been deleted, we performed a histology analysis on lungs of Tgε26 mice infected with Δgcs1 strain and receiving empty liposome or liposome containing clodronate.

fungal cells = details: Ma et al., 2006 and Alvarez et al.; cited from earlier work

Row | Compound | average survival of Cn-infected mice [1] [days] | tissue burden culture in the brain, Cn WT ([2]; Tgε26 mice, FIG. 15B) | tissue colonization of Cn WT cells in all organs analyzed ([2]; lung, brain, spleen, kidney, vs PBS or empty liposome groups) | decrease in number of alveolar macrophages (AMs) (alveolar macrophages; 48 hours after single intranasal 60 μl dose of liposome suspension, vs PBS- or empty liposome-treated mice) [%] | reduction of AMs (alveolar macrophages; 7 days after single intranasal 60 μl dose of liposome suspension, vs control-treated mice) [%] | number of fungal cells in all organs analyzed, Δgcs1 (Cn Δgcs1 mutant [3]; lung, brain, kidney, spleen, vs control treated groups, P<0.05) | reduction of lung Δgcs1 fungal load (Cn Δgcs1 mutant [3]; macrophage-depleted Tgε26 lungs, P<0.001) [fold] | delay in fungal growth in all other organs (Cn Δgcs1 mutant [3]; {}) [days] | additional days of survival of infection by the Δgcs1 strain (Cn Δgcs1 mutant [4]; Tgε26 mice depleted of AMs) [days] | average survival of Δgcs1-infected mice (Cn Δgcs1 mutant [4]; {}) [days] | lung histopathology, Δgcs1 cells (Cn Δgcs1 mutant [5]) | extrusion of fungal cells from the intracellular to the extracellular compartment (fungal cells)
1 | O=P([O-])([O-])C(Cl)(Cl)P(=O)(O)O.[Na+].[Na+] [clodronate, dichloromethylenediphosphonic acid disodium salt] | 12.8 ± 5.2 | reduction of tissue burden culture in the brain (FIG. 15B) but this difference was not statistically significant | No statistically significant differences | 58 | 52 | significantly lower number of fungal cells | > 3000 | 14 | 18 to 20 | 76.6 ± 5.3 | few Δgcs1 cells in the lung parenchyma | 
2 | CCN(CC)CCCC(C)Nc1ccnc2cc(Cl)ccc12 (stereo not drawn) [chloroquine] |  |  |  |  |  |  |  |  |  |  |  | promote extrusion of fungal cells
